The results in this text go back to PMC10447463, “Data-mining unveils structure–property–activity correlation of viral infectivity enhancing self-assembling peptides” (Nature Communications, 2023).

Series [1] is classed as physicochemical. Also noted: key to Fibril / Fibril Formation / TEM 2cat / Fibril: 1 = fibrils present; 0 non-fibrillar structures. Conditions: for Fibril / Fibril Formation: TEM, 1 mg/mL, uranyl acetate stain, qualitative.
Series [2] in a line: Turbidity, derived count rate of scattered light. The series is classed as physicochemical. Conditions: for Count Rate / kcps: derived count rate of scattered light at 633 nm, 173°, from zeta-potential measurement, 0.1 mg/mL in 1 mM KCl after 1 d at 1 mg/mL in PBS, turbidity / microscopic aggregation, mean of triplicate; for Log Count Rate: log of derived count rate; for Count Rate: turbidity. In short, it runs like this:
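Samples: 1 mg/mL in PBS pH 7.4 (from DMSO), 1 d at RT, then diluted in 1 mM KCl immediately before measurement. Triplicates, two independent runs averaged.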

[3] abbreviates: derived count rate from zeta measurement, mean.
The mark [4] stands for this setting: log10 of derived count rate of scattered light, Figure 6C.
Where [5] appears, read: logarithm of count rate in kcps.
[6] abbreviates: derived count rate of scattered light, mean, std deviation in separate column.
The mark [7] stands for this setting: derived count rate of scattered light.
Setting [8] is: Fig S8 panels A, C, asymmetric log errors.
Where [9] appears, read: Fig S8 panels B, D, derived count rate of scattered light.

Read-outs that look alike come from different tables or passages of the source.

Take CEFEFQF [KB12]: the “TEM: 1= fibrils, 0= aggregates (micelle), 0.5 = aggregates and fibrils, -1 = nothing obersved, STD prep” value (shortened to “TEM: 1= fibrils, 0= aggregates (micelle)”) in series [1] is 0. Further, the “Zeta Count Rate / kcps” value in series [2] (setting [3]) is reported as 405.4 kcps. For the same substance, the “Zeta Count Rate Category” value in series [2] (key not given) is 1.
For the substance CKFKFPF, the “Fibril / Fibril Formation” value in series [1] was found to be 0. Besides, the “Count Rate / kcps” value in series [2] amounted to 143.4 kcps. Moreover, the “Log10 Count Rate” value in series [2] (setting [4]) and in series [2] (setting [5]) was 2.156 throughout.
Consider CKIKIQIII [AR0 / F19], for which, in series [1], the “TEM: 1= fibrils, 0= aggregates (micelle)” value turned out to be 1. Further, the “Zeta Count Rate / kcps” value in series [2] (setting [6]) is 4953 kcps.
Turning to CKIKIQIRGD [psis21], the “TEM: 1= fibrils, 0= aggregates (micelle)” value in series [1] (FigS26) came to 1.
Consider CKIKIWIW, for which, in series [1], the “Fibril / Fibril Formation” value stood at 1. Also, the “Count Rate / kcps” value in series [2] came to 3321 kcps. The “Log10 Count Rate” value in series [2] (setting [4]) and in series [2] (setting [5]) was 3.521 throughout.
Take CKIWIQIY: in series [1], the “Fibril / Fibril Formation” value was 1. The “Count Rate / kcps” value in series [2] came to 1842.4 kcps. Moreover, the “Log10 Count Rate” value in series [2] (setting [4]) and in series [2] (setting [5]) was 3.265 throughout.
For CRFRFHFH, the “Fibril / Fibril Formation” value in series [1] is given as 1. In series [2], the “Count Rate / kcps” value was determined as 430.2 kcps. Further, the “Log10 Count Rate” value in series [2] (setting [4]) and in series [2] (setting [5]) was 2.634 each time.
Regarding CRLRVGVS, the “Fibril / Fibril Formation” value in series [1] is on record as 0. In series [2], the “Count Rate / kcps” value turned out to be 35.07 kcps. Further, the “Log10 Count Rate” value in series [2] (setting [4]) and in series [2] (setting [5]) was 1.545 in each case.
CRLSLSLS: the “Fibril / Fibril Formation” value in series [1] is recorded as 1. In series [2], the “Count Rate / kcps” value came out at 1697 kcps. Also, the “Log10 Count Rate” value in series [2] (setting [4]) and in series [2] (setting [5]) was 3.23 throughout.
As to EIEIQINM [TM95 / (TM75)], in series [1], the “TEM: 1= fibrils, 0= aggregates (micelle)” value is 1. The “Zeta Count Rate / kcps” value in series [2] (setting [3]) was found to be 134 kcps. In addition, the “Zeta Count Rate Category” value in series [2] (key not given) came out at 1.
Consider EIEIQINMWQ [VH8], for which the “TEM: 1= fibrils, 0= aggregates (micelle)” value in series [1] turned out to be 0.5. Moreover, in series [2] (setting [3]), the “Zeta Count Rate / kcps” value was determined as 1264 kcps. Besides, the “Zeta Count Rate Category” value in series [2] (key not given) came out at 1.
As to GYVIIK [reference compound], the “Fibril / Fibril Formation” value in series [1] is given as 0. The “Count Rate / kcps” value in series [2] was found to be 30 kcps.
Take HHHHKAKAKAKAWWWW [TM8]: in series [1], the “TEM: 1= fibrils, 0= aggregates (micelle)” value was 0.5. Also, the “Zeta Count Rate Category” value in series [2] (category 1 / 0, no key given) amounted to 1. Further, the “Zeta Count Rate / kcps” value in series [2] (setting [7]) stood at 658.9 kcps.
As to HHHHKAKAKAKAYYYY [TM10], the “TEM: 1= fibrils, 0= aggregates (micelle)” value in series [1] is on record as 0. For the same substance, in series [2] (category 1 / 0, no key given), the “Zeta Count Rate Category” value is 1. Moreover, in series [2] (setting [7]), the “Zeta Count Rate / kcps” value amounted to 240.9 kcps.
For the substance HHHHKIKIQINMYYYY [TM16], the “TEM: 1= fibrils, 0= aggregates (micelle)” value in series [1] was 1. The “Log Count Rate” value amounted to 3.753 in series [2] (setting [8]) and 3.753 in series [2] (Fig S8 panels B, D). In addition, in series [2] (setting [9]), the “Count Rate” value is 5658.77. The “Zeta Count Rate Category” value in series [2] (category 1 / 0, no key given) was determined as 1. The “Zeta Count Rate / kcps” value in series [2] (setting [7]) stood at 5659 kcps.
For HIHIQIC [CN12], in series [1], the “TEM: 1= fibrils, 0= aggregates (micelle)” value worked out at 1. In addition, the “Log Count Rate” value in series [2] (setting [8]) is recorded as 2.416; in series [2] (Fig S8 panels B, D), 2.416. Besides, the “Count Rate” value in series [2] (setting [9]) is 260.57. The “Zeta Count Rate Category” value in series [2] (category 1 / 0, no key given) turned out to be 1. Besides, the “Zeta Count Rate / kcps” value in series [2] (setting [7]) came out at 260.6 kcps.
As to HLHLPLL [CN14], the “TEM: 1= fibrils, 0= aggregates (micelle)” value in series [1] turned out to be 0.5. In addition, the “Zeta Count Rate Category” value in series [2] (category 1 / 0, no key given) came to 1. Further, the “Zeta Count Rate / kcps” value in series [2] (setting [7]) is 200 kcps.
IFQINS [reference compound]: the “Fibril / Fibril Formation” value in series [1] worked out at 1. Moreover, the “Count Rate / kcps” value in series [2] was determined as 36 kcps.
In the same order, the values of IIIK [reference compound] are 0 and 26 kcps.
The corresponding values for IIIQGK [reference compound] are 0 and 10 kcps.
As for IKFLSVN [reference compound], the “Fibril / Fibril Formation” value in series [1] came to 1. In series [2], the “Count Rate / kcps” value came to 137 kcps.
KAKLTCT: the “Fibril / Fibril Formation” value in series [1] was determined as 0. In addition, the “Count Rate / kcps” value in series [2] came out at 16.8 kcps. Besides, the “Log10 Count Rate” value in series [2] (setting [4]) and in series [2] (setting [5]) was 1.225 in each case.
For KAKQAANMWQ [JG6], in series [1], the “TEM: 1= fibrils, 0= aggregates (micelle)” value worked out at 0.5. The “Zeta Count Rate Category” value in series [2] (category 1 / 0, no key given) is 1. In addition, in series [2] (setting [7]), the “Zeta Count Rate / kcps” value came out at 690.5 kcps.
Regarding KAQCTLP, the “Fibril / Fibril Formation” value in series [1] came to 0. The “Count Rate / kcps” value in series [2] was 97.27 kcps. For the same substance, the “Log10 Count Rate” value in series [2] (setting [4]) and in series [2] (setting [5]) was 1.988 in each case.
KFKFQFF [TG6]: the “TEM: 1= fibrils, 0= aggregates (micelle)” value in series [1] is listed as 1.
In the case of KFKFQFFF [TG12], the “TEM: 1= fibrils, 0= aggregates (micelle)” value in series [1] is 1. The “Zeta Count Rate Category” value in series [2] (category 1 / 0, no key given) is 1; in series [2] (key not given), 1. Also, the “Zeta Count Rate / kcps” value in series [2] (setting [3]), in series [2] (setting [7]) and in series [2] (setting [6]) was 3039 kcps each time.
Regarding KFKFQFN [BL7], in series [1], the “TEM: 1= fibrils, 0= aggregates (micelle)” value is reported as 1. Besides, in series [2] (setting [6]), the “Zeta Count Rate / kcps” value was determined as 50.7 kcps.
In the same order, the values of KFKFQFNMW [BL5 / KB13] are 1 and 610.2 kcps.
Regarding KFKQFFINMWQ [VH14], the “TEM: 1= fibrils, 0= aggregates (micelle)” value in series [1] is given as 0. Further, the “Zeta Count Rate Category” value in series [2] (category 1 / 0, no key given) was determined as 1. Also, in series [2] (setting [7]), the “Zeta Count Rate / kcps” value was determined as 8996 kcps.
Take KFQFNMW: the “Fibril / Fibril Formation” value in series [1] turned out to be 1. In addition, the “Count Rate / kcps” value in series [2] is on record as 331.6 kcps. Also, the “Log10 Count Rate” value in series [2] (setting [4]) and in series [2] (setting [5]) was 2.521 each time.
Take KIKIKIKI [TM13]: in series [1], the “TEM: 1= fibrils, 0= aggregates (micelle)” value is given as 0. In addition, in series [2] (setting [6]), the “Zeta Count Rate / kcps” value worked out at 155.1 kcps.
The corresponding values for KIKIKIKIWW [TM21] are 0 and 9436 kcps.
In the same order, the values of KIKIKIKIWWWW [TM12] are 0 and 12420.6 kcps.
KIKIQIAMWQ [JR4]: the “TEM: 1= fibrils, 0= aggregates (micelle)” value in series [1] (FigS26) is 1.
On to KIKIQII [TG1 / (KM4)], for which, in series [1], the “TEM: 1= fibrils, 0= aggregates (micelle)” value was found to be 1. The “Zeta Count Rate Category” value came to 1 in series [2] (category 1 / 0, no key given) and 1 in series [2] (key not given). The “Zeta Count Rate / kcps” value in series [2] (setting [3]), in series [2] (setting [7]) and in series [2] (setting [6]) was 1039 kcps throughout.
With KIKIQIII [TG7], the “TEM: 1= fibrils, 0= aggregates (micelle)” value in series [1] was 1. Further, the “Zeta Count Rate Category” value in series [2] (category 1 / 0, no key given) is reported as 0; in series [2] (key not given), 0. The “Zeta Count Rate / kcps” value in series [2] (setting [3]), in series [2] (setting [7]) and in series [2] (setting [6]) was 94.97 kcps each time.
On to KIKIQIMQWN [VH16], for which the “TEM: 1= fibrils, 0= aggregates (micelle)” value in series [1] (FigS26) is given as 1.
On the same count and under the same terms, the value for KIKIQIMWNQ [VH15] was 1.
Consider KIKIQIN [JGB3], for which, in series [1], the “TEM: 1= fibrils, 0= aggregates (micelle)” value was determined as 1. Moreover, the “Log Count Rate” value is reported as 1.638 in series [2] (setting [8]) and 1.638 in series [2] (Fig S8 panels B, D). The “Count Rate” value in series [2] (setting [9]) is given as 43.43. In addition, the “Zeta Count Rate / kcps” value in series [2] (setting [6]) was determined as 43.43 kcps.
Consider KIKIQINAWQ [JR3-II], for which, in series [1] (FigS26), the “TEM: 1= fibrils, 0= aggregates (micelle)” value turned out to be 1.
Same read-out and setting: the value for KIKIQINMAQ [JR2] was 1; that for KIKIQINMWA [JR1] was 1.
For the substance KIKIQINMWQRGD [VH17-II], in series [1], the “TEM: 1= fibrils, 0= aggregates (micelle)” value came out at 0. Besides, the “Zeta Count Rate / kcps” value in series [2] (setting [6]) is 2783 kcps.
With KIKIQINMWWQ [VH11], in series [1], the “TEM: 1= fibrils, 0= aggregates (micelle)” value was found to be 0.5. Further, in series [2] (setting [6]), the “Zeta Count Rate / kcps” value is given as 3893 kcps.
In the same order, the values of KIKIQINMWWWQ [VH12] are 0.5 and 7596.3 kcps.
In the case of KIKIQIRGD [MG6], the “TEM: 1= fibrils, 0= aggregates (micelle)” value in series [1] (FigS26) is given as 1.
For the substance KIKIQIW [TM69], the “TEM: 1= fibrils, 0= aggregates (micelle)” value in series [1] was 1. Also, in series [2] (category 1 / 0, no key given), the “Zeta Count Rate Category” value amounted to 1. Also, the “Zeta Count Rate / kcps” value in series [2] (setting [7]) and in series [2] (setting [6]) was 144.9 kcps throughout.
With NMWQKAKAQA [JG10], the “TEM: 1= fibrils, 0= aggregates (micelle)” value in series [1] (FigS26) is listed as 1.
The same measure, in the same setting: the value for NMWQKFKFQF [JG11] was 1; that for NMWQKIKIQI [JG9] was 1; that for NMWQKIKQII [JG8] was 0.
For RGDSGGGGGGKIKIQIC [TM114 / RC17], the “Log Count Rate” value in series [2] (setting [8]) turned out to be 4.018; in series [2] (Fig S8 panels B, D), 4.018. Moreover, the “Count Rate” value in series [2] (setting [9]) is on record as 10416.2.
